From patent publication US20260284011A1, “COMPOUNDS FOR RESTORING SUSCEPTIBILITY TO BETA-LACTAM ANTIBIOTICS” (UNIVERSITY OF NOTRE DAME DU LAC, priority 2023, published 2026) come the findings set out here.

Read-outs that look alike come from different tables or passages of the source.

For assay [1], the system named is 626 (NRS382), MRSA, SCCmec II, bla +. Nature of the assay: MIC determination and potentiation assay (microdilution broth). It counts as cell-based. The conditions noted are these: Staphylococcus aureus. As to the method: (§1) MICs were determined by the microdilution broth method following the Clinical & Laboratory Standards Institute (CLSI) guidelines. […] Experiments were performed in triplicate in 96-well plates with 5×10^5 CFU·mL^−1 of bacteria. […] The MIC was the concentration for which bacterial growth was not observed.

In assay [2] the test system is 880, MRSA, SCCmec IV, bla +. The assay is described as above. It counts as cell-based. As to the method: as §1
Assay [3] has as its system AIS 1000505 (VRS10), MRSA, vancomycin-resistant, SCCmec II, bla +. The description is as above. The conditions noted are these: Staphylococcus aureus. It is filed as cell-based. The method, then: as §1
Assay [4] has as its system ATCC 33591, MRSA, SCCmec III, bla +. The assay is described as above. It counts as cell-based. The conditions noted are these: Staphylococcus aureus. The method, then: as §1
Assay [5] deals with CA-127 (NRS643), MRSA, SCCmec IV, bla +. The description is as above. It is filed as cell-based. The conditions noted are these: Staphylococcus aureus. The method, then:
as §1

Assay [6] deals with CA-263 (NRS647), MRSA, SCCmec IV, bla +. The assay is described as above. It counts as cell-based. The conditions noted are these: Staphylococcus aureus. As to the method: as §1
For assay [7], the system named is CO-23 (NRS661), MRSA, SCCmec II, bla +. The assay is described as above. It counts as cell-based. The conditions noted are these: Staphylococcus aureus. The method, then: as §1
In assay [8] the test system is CT-19 (NRS676), MRSA, SCCmec IV, bla +. Described as above. It is filed as cell-based. The conditions noted are these: Staphylococcus aureus. The method, then: as §1
Assay [9] has as its system HFH 30495, MRSA, SCCmec II, bla +. Described as above. It counts as cell-based. The conditions noted are these: Staphylococcus aureus. The method, then: as §1
The test system of assay [10] is HIP 07930 (NRS22), MRSA/VISA, SCCmec II, bla +. The description is as above. It is filed as cell-based. The conditions noted are these: Staphylococcus aureus. As to the method:
as §1

The subject of assay [11] is HIP13036 (NRS404), MRSA/VISA, SCCmec II, bla +. Described as above. It counts as cell-based. The conditions noted are these: Staphylococcus aureus. The method, then:
as §1

The subject of assay [12] is LinR#12 (NRS119), MRSA, SCCmec IV, bla +. Described as above. It counts as cell-based. The conditions noted are these: Staphylococcus aureus. As to the method:
as §1

Assay [13] deals with MN-082 (NRS701), MRSA, SCCmec II, bla +. The description is as above. It is filed as cell-based. The conditions noted are these: Staphylococcus aureus. As to the method:
as §1

Assay [14] has as its system MSSA476 (NRS72), MSSA, bla +. Described as above. The conditions noted are these: Staphylococcus aureus. It is filed as cell-based. As to the method:
as §1

Another assay has as its system NRS128, MSSA, bla +. The description is as above. It counts as cell-based. The conditions noted are these: Staphylococcus aureus. As to the method: as §1
The subject of assay [15] is NY-315 (NRS715), MRSA, SCCmec II, bla +. The description is as above. It counts as cell-based. The conditions noted are these: Staphylococcus aureus. As to the method:
as §1

In assay [16] the test system is TN-124 (NRS735), MRSA, SCCmec II, bla +. Described as above. The conditions noted are these: Staphylococcus aureus. It counts as cell-based. As to the method:
as §1

Assay [17] relates to strain FPR3757 (a USA300 strain). The assay is described as follows: Checkerboard assay. It counts as cell-based, Staphylococcus aureus. The conditions noted are these: 24-h incubation. The method, then: Synergy with β-Lactams and Time-Kill Assays. […] In this assay, the antibiotics are compared individually and in combination. The fractional inhibitory concentration (FIC) index is calculated. Synergy is defined as an FIC value ≤0.5, indifference as FIC >0.5 to ≤4, and antagonism as FIC >4.
Checkerboard assay. […] The final inoculum in each well was 5×10^5 CFU·mL^−1, and the result was read after 24-h incubation at 37° C. The fractional inhibitory concentration (FIC) index was calculated for each combination. An FIC index of ≤0.5 is considered synergistic. The experiment was done in triplicates.

The next assay has as its system FPR3757 (USA300 clone). Nature of the assay: Time-kill assay. The conditions noted are these: for antibacterial activity as single-drug treatment: FIG. 3, 24 h, MEM 2 mg·L^−1, 4 8 mg·L^−1. It is filed as cell-based, Staphylococcus aureus.
[18] abbreviates: 626 (NRS382), agent alone, read-out: MIC.
Where [19] appears, read: Staphylococcus aureus, 880, agent alone, read-out: MIC.
Setting [20] is: AIS 1000505 (VRS10), agent alone, read-out: MIC.
Where [21] appears, read: ATCC 33591, agent alone, read-out: MIC.
The mark [22] stands for this setting: CA-127 (NRS643), agent alone, read-out: MIC.
The mark [23] stands for this setting: CA-263 (NRS647), agent alone, read-out: MIC.
[24] abbreviates: CO-23 (NRS661), agent alone, read-out: MIC.
The mark [25] stands for this setting: CT-19 (NRS676), agent alone, read-out: MIC.
[26] abbreviates: HFH 30495, agent alone, read-out: MIC.
Where [27] appears, read: HIP 07930 (NRS22), agent alone, read-out: MIC.
Setting [28] is: HIP13036 (NRS404), agent alone, read-out: MIC.
[29] abbreviates: LinR#12 (NRS119), agent alone, read-out: MIC.
[30] abbreviates: MN-082 (NRS701), agent alone, read-out: MIC.
Setting [31] is: MSSA476 (NRS72), agent alone, read-out: MIC.
The mark [32] stands for this setting: NRS128, agent alone, read-out: MIC.
Where [33] appears, read: NY-315 (NRS715), agent alone, read-out: MIC.

As for `CCO/N=C(\C(=O)N[C@@H]1C(=O)N2C(C(=O)[O-])=C(Sc3nc(-c4cc[n+](C)cc4)cs3)CS[C@H]12)c1nsc(N)n1` [CPT, ceftaroline], the MIC in [1] (setting [18]) is 1 µg/mL; in assay [2] (setting [19]), 1 µg/mL; in assay [3] (setting [20]), 1 µg/mL; in [4] (setting [21]), 1 µg/mL; in assay [5] (setting [22]) it was 0.5 µg/mL; in [6] (setting [23]), 0.5 µg/mL. The MIC in assay [7] (setting [24]) amounted to 1 µg/mL; in [8] (setting [25]) it was 1 µg/mL; in assay [9] (setting [26]) it was 1 µg/mL; in assay [10] (setting [27]), 0.25 µg/mL; in [11] (setting [28]), 1 µg/mL; in [12] (setting [29]), 1 µg/mL. Further, the MIC was determined as 2 µg/mL in assay [13] (setting [30]); 0.13 µg/mL in [14] (setting [31]); 0.06 µg/mL in the assay with NRS128, MSSA, bla + (setting [32]); 1 µg/mL in assay [15] (setting [33]); 1 µg/mL in assay [16].

For `N#Cc1ccc2nc(SCB(O)O)n(Cc3ccc(C(F)(F)F)cc3C(F)(F)F)c2c1` [Compound 4, (((1-(2,4-bis(trifluoro-methyl)benzyl)-6-cyano-1H-benzo[d]imidazol-2-yl)thio)methyl)boronic acid], the MIC in assay [1] (setting [18]), in assay [2] (setting [19]), in [3] (setting [20]), in [4] (setting [21]), in assay [5] (setting [22]) and in assay [6] (setting [23]) was 16 µg/mL in each case. Moreover, the MIC is 32 µg/mL in assay [7] (setting [24]); 16 µg/mL in [8] (setting [25]); 16 µg/mL in assay [9] (setting [26]); 16 µg/mL in assay [10] (setting [27]); 8 µg/mL in assay [11] (setting [28]); 16 µg/mL in [12] (setting [29]). Further, the MIC amounted to 16 µg/mL in [13] (setting [30]); 32 µg/mL in assay [14] (setting [31]); 16 µg/mL with NRS128, MSSA, bla + (setting [32]); 16 µg/mL in assay [15] (setting [33]); 16 µg/mL in [16]. The “FIC index, 4 with MEM” value in [17] was determined as 0.13. In the assay on FPR3757 (USA300 clone), the “antibacterial activity as single-drug treatment” value was “did not show antibacterial activity”.

As for `CO[C@@]1(NC(=O)Cc2cccs2)C(=O)N2C(C(=O)O)=C(COC(N)=O)CS[C@@H]21` [FOX, cefoxitin], the MIC in [1] amounted to 512 µg/mL; in [2] (setting [19]), 64 µg/mL; in [3] it was 128 µg/mL; in assay [4], 128 µg/mL; in [5] it was 128 µg/mL; in [6] (setting [23]), 32 µg/mL. Also, the MIC is 128 µg/mL in assay [7]; 64 µg/mL in assay [8] (setting [25]); 256 µg/mL in assay [9] (setting [26]); 128 µg/mL in assay [10]; 256 µg/mL in [11] (setting [28]); 256 µg/mL in [12] (setting [29]). The MIC is 256 µg/mL in assay [13] (setting [30]); 4 µg/mL in [14] (setting [31]); 4 µg/mL with NRS128, MSSA, bla +; 256 µg/mL in assay [15] (setting [33]); 128 µg/mL in assay [16].

For the compound `C[C@@H](O)[C@H]1C(=O)N2C(C(=O)O)=C(S[C@@H]3CN[C@H](C(=O)N(C)C)C3)[C@H](C)[C@H]12` [MEM, meropenem], the MIC in [1] (setting [18]) came out at 32 µg/mL; in assay [2] (setting [19]) it was 16 µg/mL; in [3] (setting [20]) it was 32 µg/mL; in assay [4] (setting [21]), 16 µg/mL; in assay [5] (setting [22]), 4 µg/mL; in assay [6] (setting [23]), 4 µg/mL. The MIC in [7] (setting [24]) amounted to 32 µg/mL; in assay [8] (setting [25]), 4 µg/mL; in assay [9] (setting [26]), 32 µg/mL; in [10] (setting [27]) it was 8 µg/mL; in assay [11] (setting [28]), 8 µg/mL; in [12] (setting [29]), 32 µg/mL. The MIC in [13] (setting [30]) is 32 µg/mL; in assay [14] (setting [31]), 0.13 µg/mL; with NRS128, MSSA, bla + (setting [32]), 0.13 µg/mL; in assay [15] (setting [33]), 32 µg/mL; in assay [16], 8 µg/mL. Moreover, in [17], the “FIC index, 4 with MEM” value was 0.13. Further, the “antibacterial activity as single-drug treatment” value in the assay on FPR3757 (USA300 clone) was “did not show antibacterial activity”. In addition, the “activity of MEM by itself” value in the assay with FPR3757 (USA300 clone) (throughout the 24-h assay) is reported as “no activity”.

With `Cc1onc(-c2ccccc2)c1C(=O)N[C@@H]1C(=O)N2[C@@H]1SC(C)(C)[C@@H]2C(=O)O` [OXA, oxacillin], the MIC is 512 µg/mL in assay [1]; 256 µg/mL in assay [2] (Staphylococcus aureus); 256 µg/mL in assay [3]; 512 µg/mL in assay [4]; 64 µg/mL in assay [5]; 64 µg/mL in [6]. Moreover, the MIC in [7] was determined as 256 µg/mL; in assay [8] it was 256 µg/mL; in assay [9], 512 µg/mL; in assay [10] it was 64 µg/mL; in [11], 256 µg/mL; in assay [12], 512 µg/mL. In addition, the MIC in assay [13] stood at 512 µg/mL; in assay [14], 0.5 µg/mL; in the assay with NRS128, MSSA, bla +, 0.5 µg/mL; in assay [15], 256 µg/mL; in [16] it was 256 µg/mL.
